Experimental data taken from the supplement of paper PMC4862054.

Assays:
Conditions in all cases: incubation time: 72 h
[1] = test system: HCC1599; test: normalised response (% of control), CellTox Green; higher = less cell death (100 = DMSO, 0 = benzethonium chloride kill control)
Summary of the method: (§1)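 CellTox Green fluorescence (485/520 nm) and, after 10 min at room temperature, CellTiter-Glo luminescence were read from breast cancer cell lines incubated 72 h in 384-well plates. Cells were seeded as 20 µl suspension onto compound at 5 concentrations in 10-fold steps over a 10,000-fold range chosen per compound. Each plate was normalised to 0.1 % DMSO (100) and a positive kill control (0). Values are normalised signals, one per concentration.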

[2] = test system: CAL-120; test: as above
Summary of the method: as §1

[3] = test system: BT-549; test: as above
Summary of the method: as §1

[4] = test system: CAL-51; test: as above
Summary of the method: as §1

[5] = test system: MDA-MB-468; test: as above
Summary of the method: as §1

[6] = test system: Hs578T; test: as above
Summary of the method: as §1

[7] = test system: MDA-MB-453; test: as above
Summary of the method: as §1

[8] = test system: BT-474; test: as above
Summary of the method: as §1

[9] = test system: MDA-MB-231; test: as above
Summary of the method: as §1

[10] = test system: HDQ-P1; test: as above
Summary of the method: as §1

[11] = test system: DU-4475; test: as above
Summary of the method: as §1

[12] = test system: HCC1143; test: as above
Summary of the method: as §1

[13] = test system: MFM-223; test: as above
Summary of the method: as §1

[14] = test system: HCC1937; test: as above
Summary of the method: as §1

[15] = test system: CAL-85-1; test: as above
Summary of the method: as §1

[16] = test system: CAL-148; test: as above
Summary of the method: as §1

[17] = test system: MDA-MB-436; test: as above
Summary of the method: as §1

[18] = test system: HCC1599; test: normalised response (% of control), CellTiter-Glo; higher = more viable cells (100 = DMSO, 0 = benzethonium chloride kill control)
Procedure: (§2)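 DSRT, 72 h incubation, CellTox Green / CellTiter-Glo readout. Signal is normalised to DMSO and benzethonium chloride controls. Value is the normalised response at dose 3.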

[19] = test system: CAL-120; test: as above
Procedure: as §2

[20] = test system: BT-549; test: as above
Procedure: as §2

[21] = test system: CAL-51; test: as above
Procedure: as §2

[22] = test system: MDA-MB-468; test: as above
Procedure: as §2

[23] = test system: Hs578T; test: as above
Procedure: as §2

[24] = test system: MDA-MB-453; test: as above
Procedure: as §2

[25] = test system: BT-474; test: as above
Procedure: as §2

[26] = test system: MDA-MB-231; test: as above
Procedure: as §2

[27] = test system: HDQ-P1; test: as above
Procedure: as §2

[28] = test system: DU-4475; test: as above
Procedure: as §2

[29] = test system: HCC1143; test: as above
Procedure: as §2

[30] = test system: SK-BR-3; test: as above
Procedure: as §2

[31] = test system: MFM-223; test: as above
Procedure: as §2

[32] = test system: MCF-10A; test: as above
Procedure: as §2

[33] = test system: HCC1937; test: as above
Procedure: as §2

[34] = test system: CAL-85-1; test: as above
Procedure: as §2

[35] = test system: CAL-148; test: as above
Procedure: as §2

[36] = test system: MDA-MB-436; test: as above
Procedure: as §2

[37] = test system: MCF-10A; test: normalised response (% of control), CellTox Green; higher = less cell death (100 = DMSO, 0 = benzethonium chloride kill control)
Summary of the method: as §1

Compound | normalised response [1] | normalised response [2] | normalised response [3] | normalised response [4] | normalised response [5] | normalised response [6] | normalised response [7] | normalised response [8] | normalised response [9] | normalised response [10] | normalised response [11] | normalised response [12] | normalised response [13] | normalised response [14] | normalised response [15] | normalised response [16] | normalised response [17] | normalised response [18] | normalised response [19] | normalised response [20] | normalised response [21] | normalised response [22] | normalised response [23] | normalised response [24] | normalised response [25] | normalised response [26] | normalised response [27] | normalised response [28] | normalised response [29] | normalised response [30] | normalised response [31] | normalised response [32] | normalised response [33] | normalised response [34] | normalised response [35] | normalised response [36] | normalised response [37]
O=C(/C=C/c1cccc(S(=O)(=O)Nc2ccccc2)c1)NO [Belinostat] (100 nM) | 104% | 99.2% | 100% | 83.8% | 131% | 103% | 100% | 96.7% | 76.3% | 104% | 99.4% | 95.4% | 84.1% | 89.8% | 94.8% | 101% | 93.2% | 92.3% | 87.5% | 99.3% | 63.4% | 83.6% | 95% | 62.3% | 95% | 85.5% | 83.7% | 86.4% | 89.1% | 82.7% | 85.6% | 81.3% | 83.9% | 85.6% | 79.8% | 83.6% | –
NC(=O)c1ccc(I)c([N+](=O)[O-])c1 [Iniparib] (100 nM) | 83.9% | 99.1% | 106% | 98.5% | 128% | 94.2% | 99.1% | 95.7% | 83% | 99.5% | 94.2% | 70.8% | 97.5% | 92.4% | 103% | 53.4% | 67.8% | 94% | 89.6% | 99% | 117% | 85.2% | 92.8% | 78.5% | 92% | 90.9% | 95% | 98.8% | 96.9% | 80.9% | 82.7% | 76.1% | 93.1% | 92% | 84.8% | 93% | 100%
COc1cc(OC2CCN(C)CC2)ccc1Nc1ncc2c(n1)n(C1CCCC1)c(=O)n2C [AZ 3146] (100 nM) | 96.6% | 96.9% | 111% | 111% | – | 99.1% | 104% | 98.3% | 92.5% | 96.2% | 99.8% | 96.7% | 100% | 96.3% | 107% | 89.9% | 77.7% | 98.3% | 99.9% | 108% | 115% | 101% | 94.1% | 111% | 104% | 99.1% | 98.7% | 99.9% | 98.8% | 98.1% | 99.2% | 96.7% | 96.2% | 102% | 99.2% | 104% | –
S=P(N1CC1)(N1CC1)N1CC1 [Thio-TEPA] (500 nM) | 97.2% | 97% | 108% | 113% | 69% | 88.8% | 102% | 94.3% | 105% | 92.6% | 101% | 101% | 100% | – | 107% | 102% | 85.2% | 89% | 96.1% | 102% | 108% | 101% | 101% | 116% | 95% | 98.8% | 102% | 104% | 97.5% | 110% | 98.7% | 106% | 95.4% | 103% | 95.6% | 94.8% | –
